Assay [1] deals with osteoclast formation in mouse marrow cultures. Put plainly: TRAP staining of mouse marrow cultures treated with bis-enoxacin. The format is cell-based. The arrangement: unit of the concentration uncertain. As to conditions: 1 (unit uncertain)0 mM; 6 Days; TRAP positive cells. As to the method:
Mouse marrow cultures were treated with bis-enoxacin at the concentrations of 5 mM, 10 mM, 25 mM, 50 mM, and 100 mM respectively, for 6 Days in wells of a 24-well plate. The cells were fixed and stained for tartrate-resistant acid phosphatase (TRAP) activity which is a marker for osteoclasts. The number of TRAP positive mononuclear, multinuclear (2-10 nuclei) and giant (>10 nuclei) were counted.

A further assay has as its system mouse marrow osteoclasts. In words: actin ring count on bone slices pre-treated with bis-enoxacin. The format is cell-based. As to conditions: bone slices pre-treated at 10 mM and 1 mM; 3 Days of culture. As for the experimental part: Bone slices were incubated with bis-enoxacin at the concentrations of 10 mM and 1 mM respectively. After a 1 Day incubation, the slices were washed 4 times over a period of 24H. Mouse marrow osteoclasts were then plated on the slices, and after 3 Days of culture the cells were fixed and the number of actin rings (a marker for active osteoclasts) was counted.

Assay [2] relates to mouse marrow osteoclasts on bone slices. Put plainly: bone resorption pitting quantified by scanning electron microscopy. As to conditions: 5 Days. Also noted: dose or concentration left out as unconfirmed. In kind it is cell-based. As to the method:
Mouse marrow osteoclasts were grown to maturity for 5 Days then scraped and plated on bone slices treated with bis-enoxacin at the concentrations of 30 mM, 10 mM and 1 mM respectively. After 5 Days, the cells were removed and pitting was quantified by scanning electron microscopy.

Assay [3] addresses T1, interaction between recombinantly-expressed B2 subunit and pure rabbit muscle F-actin (Homo sapiens, UniProt P21281).
T1 construct: made in house
Put plainly: pelleting assay of B subunit binding to F-actin. As to conditions: 100 uM inhibitor compound; recombinant B subunit 1 μM, F-actin 2 μM; densitometry of SDS-PAGE gels; read-out: % inhibition. As for the experimental part:
Twenty-one small molecules are tested for their ability to block interaction between recombinantly-expressed B2 subunit and pure rabbit muscle F-actin.
Recombinant B subunit (1 μM) plus/minus F-actin (2 μM)) plus/minus 100 uM inhibitor compounds were incubated for 10 minutes in 20 mM Tris/HCl (pH 7.5), 100 mM NaCl, 1 mM MgCl2, 0.2 mM CaCl2, 0.5 mM ATP, 0.2 mM DTT, then subjected to ultracentrifugation at 180,000×g for 45 min. Supernatants and pellets were collected in SDS-PAGE sample buffer, separated by SDS-PAGE, stained with Coomassie Blue, and densitometry was performed using a Flurchem 8000 (Alpha Innotech, San Leandro Calif.).
The percent inhibition was determined by densitometry of SDS-PAGE gels. The raw densitometric number obtained of the recombinant B subunit band that was pelleted with F-actin, but with no compound present, represented 0% inhibition. The amount of the raw densitometric number of the amount of recombinant B subunit that pelleted with no actin present, but with compound, represented 100% inhibition. The amount of recombinant B subunit that pelleted with actin and the compound being tested was placed as a percentage assuming a linear response.

Assay [4] deals with osteoclast formation in calcitriol-stimulated mouse marrow cultures. In words: osteoclastogenesis stimulated by calcitriol in mouse marrow cultures. The format is cell-based. As for the experimental part:
Enoxacin and Binhib 2 were then tested for their effects on osteoclastogenesis stimulated by calcitriol in mouse marrow cultures. The mixed cultures represent a model for the complex interactions that regulate bone resorption in vivo. […] Osteoclast and osteoblast-containing mouse bone marrow cultures are obtained as above described. 4-6-week-old Swiss-Webster mice (Harlan, Indianapolis, Ind.) are sacrificed by cervical dislocation. Femurs and tibias are dissected free of adherent tissue; the marrow is expelled by cutting both bone ends and flushing the marrow cavity with MEM D10 using a 25-gauge needle. The marrow cells are washed twice and plated in 6 well plates at a concentration of 1×10^6 nucleated cells/cm^2 in MEM D1 0 containing 10 nM calcitriol. Cultures are fed on the third and fifth day of culture by replacing half of the medium with fresh medium containing calcitriol. Cultures are treated with enoxacin at 10 μM or vehicle control on Day 1, and when the media is refreshed.

The test system of a further assay is osteoblast formation. In words: osteoblast formation in mouse marrow cultures, judged by alkaline phosphatase expressing cells. The format is cell-based. The settings on record: 1-10 μM. As for the experimental part:
Enoxacin and Binhib 2 were then tested for their effects on osteoclastogenesis stimulated by calcitriol in mouse marrow cultures. The mixed cultures represent a model for the complex interactions that regulate bone resorption in vivo.
In addition, at 1-10 μM enoxacin, osteoclast formation was inhibited while osteoblast formation, judged by alkaline phosphatase expressing cells, was not affected. And, at level of 100 μM, enoxacin blocked 90% of the B subunit from binding F-actin.

Assay [5] relates to mature osteoclasts on bone slices. In words: ruffled membrane formation / V-ATPase trafficking in mature osteoclasts on bone slices (anti-E subunit antibody). In kind it is cell-based. As for the experimental part: FIG. 7 depicts that enoxacin (10 μM) blocks ruffled membrane formation. Mature osteoclasts on bone slices were treated with enoxacin or vehicle control for 3 days, then fixed and labeled with an anti-E subunit antibody. […] Arrows point to representative osteoclasts; The present inventors also tested the effects of enoxacin on osteoclasts that were already mature and loaded onto bone slices. In this experiment, mature osteoclasts on bone slices were treated with enoxacin or vehicle control for 3 days, then fixed and labeled with an anti-E subunit antibody. Control osteoclasts produced many ruffled membranes.

Assay [6] has as its target T2, V-ATPase interaction with microfilaments (F-actin) (Mus musculus, UniProt P62814).
T2 construct: endogenous in cells; host or cells: primary mouse marrow osteoclasts (RANKL-differentiated)
Put plainly: immunoprecipitation of V-ATPase from soluble osteoclast extracts. The settings on record: control extracts treated after homogenization, prior to immunoprecipitation. As to the method: Immunoprecipitations: To further test whether enoxacin disrupts the capacity of V-ATPase to interact with microfilaments, immunoprecipitations are performed from soluble extracts of osteoclasts that had been treated with enoxacin or vehicle control using anti-E subunit and anti-a3 subunit antibodies developed by the present inventors (Zuo, J., et al. J. Bone Miner. Res. 2006, 21:714-721; Lee, B. S., et al. J. Bone Miner. Res., 1999, 14:2127-2136). It is expected that treatments of control extracts with enoxacin after cells are homogenized, but prior to immunoprecipitation, reduces the amount of F-actin attached to the immunoprecipitated V-ATPase.

The next assay concerns GW bodies. In words: GW body formation. The format is cell-based, mouse. As to the method:
GW bodies: GW bodies have been reported to be correlated with miRNA activity (Pauley, K. M., et al. EMBO Rep. 2006, 7:904-910; Lian, S., et al. Cell Cycle 2006, 5:242-245). Enoxacin, an enhancer of miRNA activity, is predicted to increase the number of GW bodies present and/or increase the size of GW bodies. To test whether enoxacin affects GW body formation, calcitriol-stimulated mouse marrow cultures, RANKL-stimulated primary hematopoietic cells and primary calvarial osteoblasts are treated with enoxacin. A dose response curve using doses above and below the IC50 dose is performed for inhibition of osteoclast formation and bone resorption. Osteoclast formation, staining and enumerating TRAP+ cells, and ruffled membrane formation are examined, by treating preformed osteoclasts on bone slices. Cells are fixed at various time points after treatment with enoxacin, and stain with polyclonal antibody against GW bodies and monoclonal anti-DCP1. The number of GW bodies in at least 100 randomly sampled cells is counted. The number of GW bodies is divided by the number of nuclei/cell, as determined by counting DAPI stained nuclei. This experiment is repeated in triplicate. Counts are performed by pre-calibrated assistants who are blinded to the nature of the experiment. Images are taken using a Zeiss Axiovert 200 M microscope and a Zeiss AxioCam MRm camera using the 40×0.75 NA objective.

In assay [7] the test system is ovariectomized (OVX) rats. In words: ovariectomized (OVX) rat model. The format is in vivo. The settings on record: oral daily, 6 weeks. As for the experimental part:
Enoxacin is tested in ovariectomized (OVX) rats that lose bone in a manner similar to that of postmenopausal women. This model has been widely and successfully utilized as an early pre-clinical model for osteoporotic disease (Pun, S., et al. Bone, 2000, 27:197-202; Wronski, T. J., et al. Endocrinology, 1993, 132:823-831; Wronski, T. J., et al. Endocrinology, 1988, 123:681-686; Iwaniec, U. T., et al. Endocrinology, 2002, 143:2515-2526). In this study, the effects of systemic administration of enoxacin are examined.
In this study, ligands identified that block V-ATPase/F-actin interactions and bone resorption in vitro are advanced to in vivo testing in OVX rats. Female Sprague Dawley rats are subjected to sham surgery or ovariectomized at 3 months of age (see the preceding references). On the day after surgery, groups of sham operated control and OVX rats are injected subcutaneously (SC) with vehicle or treated with vehicle via oral gavage. A second group of OVX rats are injected SC 3 days/week with 17β-estradiol (Sigma, St. Louis, Mo.) at a dose of 10 μg/kg to inhibit bone resorption and prevent cancellous bone loss. The animals are treated orally with daily doses of enoxacin including 10, 100 and 400 mg/kg body weight. Each group consist of 10 rats. […] Due to the potential for enoxacin to affect intestinal flora, rats are weighed weekly and closely monitored for weight loss and diarrhea. […]

The source of these data is patent US20120046246A1, “METHODS FOR TREATING OSTEOCLAST-RELATED DISEASE, COMPOUNDS AND COMPOSITIONS THEREOF” (University of Florida Research Foundation, priority 2008, published 2012).

T2 sequence (P62814 whole entry): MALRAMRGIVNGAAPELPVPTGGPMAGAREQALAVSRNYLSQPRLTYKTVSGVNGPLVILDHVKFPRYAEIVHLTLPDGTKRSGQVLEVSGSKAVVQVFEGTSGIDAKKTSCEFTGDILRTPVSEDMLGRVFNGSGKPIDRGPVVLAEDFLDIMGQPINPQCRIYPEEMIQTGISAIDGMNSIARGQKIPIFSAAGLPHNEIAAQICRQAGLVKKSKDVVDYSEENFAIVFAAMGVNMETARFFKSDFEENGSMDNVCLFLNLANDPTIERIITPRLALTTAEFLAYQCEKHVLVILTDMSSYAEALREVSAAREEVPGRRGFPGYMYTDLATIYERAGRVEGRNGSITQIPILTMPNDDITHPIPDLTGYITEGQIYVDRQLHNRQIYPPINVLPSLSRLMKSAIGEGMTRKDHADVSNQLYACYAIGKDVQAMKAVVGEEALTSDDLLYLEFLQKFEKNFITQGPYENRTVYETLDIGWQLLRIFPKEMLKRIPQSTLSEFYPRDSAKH
T1 sequence (P21281 whole entry): as the sequence (P62814 whole entry) above, with M25A, A26V, K460R, T464A, Y474F counted along it

Take `CCn1cc(C(=O)O)c(=O)c2cc(F)c(N3CCN(CC(P(=O)(O)O)P(=O)(O)O)CC3)nc21` [bis-enoxacin, 7-(4-(2,2-Diphosphonoethyl)piperazin-1-yl)-1-ethyl-6-fluoro-4-oxo-1,4-dihydro-1,8-naphthyridine-3-carboxylic acid]: the “effects on osteoclast formation compared with enoxacin” value in assay [1] was “identical effects”. Also, the “reduction of actin ring numbers” value in the assay on mouse marrow osteoclasts is given as “approximately 60%”. In addition, the “bone resorption compared to control” value in [2] is listed as “reduced”.
On to `CCn1cc(C(=O)O)c(=O)c2cc(F)c(N3CCNCC3)nc21` [enoxacin, 1-ethyl-6-fluoro-4-oxo-7-(piperazin-1-yl)-1,4-dihydro-1,8-naphthyridine-3-carboxylic acid], for which, in assay [3], the inhibition (in general, the change of the read-out against control, counted positive when it falls) at 100 µM was 92%. Also, the formation of osteoclasts entry in [4] (1 μM) is “significantly reduced”. The osteoclast formation result is listed as “inhibited” in [4] (1-10 μM); “inhibits” in [4] (concentration not given); “dramatic reductions” in [4] (single dose at the onset of the marrow culture period, end of 7 Days). Besides, in [4] (Osteoclast, calcitriol-stimulated mouse marrow cultures), the IC50 (in general, the point on the concentration scale where inhibition reaches its midpoint) came out at 1 µM. For the same molecule, the “osteoblast formation, judged by alkaline phosphatase expressing cells” value with osteoblast formation is reported as “not affected”. Also, the “V-ATPase trafficking to ruffled membranes in mature osteoclasts” value in assay [5] (10 μM) was “completely inhibited”. The ruffled membrane formation entry is reported as “blocks” in assay [5] (10 μM, 3 days) and “disrupted” in assay [5] (concentration not given). For the same molecule, the “E subunit labeling distribution” value in [5] (mature osteoclasts on bone slices, 3 days) was “perinuclear distribution”. Moreover, the “amount of F-actin attached to the immunoprecipitated V-ATPase” value in [6] is recorded as “reduces”. Further, the “number and/or size of GW bodies” value in the assay on GW bodies is listed as “increase”. In addition, the “ruffled membranes of osteoclasts along the bone surface” value in assay [7] is recorded as “does not have ruffled membranes”.
